Data from patent publication US7915237B2, “Production of pure stereoisomers of tricyclo[5.2.1.02.6]-dec-9-yl-xanthogenate and medicaments therefrom” (Lumavita AG, priority 2001, dated 2011).

Key:
Herpes simplex virus 1 [1] = experiment: Inhibition of Herpes proliferation by measuring viral proliferation (plaque assay of supernatants); assay type: cell-based, Herpes simplex virus 1 in monkey kidney cells (Rita strain)
Experimental: The inhibition of the proliferation of Herpes by exo/exotricyclo[5.2.1.0^2.6]dec-9-yl-xanthogenate was determined by measuring viral proliferation. For this purpose, monkey kidneys cells (Rita strain) were seeded on Linbro plates. After 24 hours, 100 plaque-forming units of Herpes simplex virus 1 were added to each culture. After allowing for adsorption for one hour, fresh culture medium adjusted to pH 6.8 was added. Four cultures each were treated either with the pure exo/exo isomer or a mixture of isomers containing 83% of the exo/exo isomer using the following concentrations: 0, 5, 10 or 15 μg/ml. The virus concentrations in the supernatants of the cultures were determined after four days by means of plaque assays. The curves were used to determine the concentration at which viral proliferation was inhibited by 50% (IC50). An IC50 of 0.6 μg/ml was found for the exo/exo isomer. […] This means that the pure exo/exo isomer effected a 50% reduction of viral proliferation at a more than 10-fold lower concentration as compared to the mixture of isomers.

Herpes simplex virus 1 [2] = experiment: Inhibition of Herpes proliferation by measuring the cytopathogenic effect; assay type: cell-based, Herpes simplex virus 1 in monkey kidney cells (Rita strain); details: 50 PFU HSV-1, pH 6.8, microscopy after 6 days
Experimental: The inhibition of the proliferation of Herpes by exo/exo-tricyclo[5.2.1.0^2.6]dec-9-yl-xanthogenate was determined by measuring the cytopathogenic effect. For this purpose, monkey kidneys cells (Rita strain) were seeded on Linbro plates. After 24 hours, 50 plaque-forming units of Herpes simplex virus 1 were added to each culture. After allowing for adsorption for one hour, fresh culture medium adjusted to pH 6.8 was added. Four cultures each were treated either with the pure exo/exo isomer or a mixture of isomers containing 83% of the exo/exo isomer using the following concentrations: 0, 5, 10, 15 or 20 μg/ml. The cultures were analyzed by microscopy after 6 days. Untreated cultures were completely lysed as a result of virus proliferation (cytopathogenic effect).

concentration at which viral proliferation was inhibited by 50% (IC50) (Herpes simplex virus 1 [1]; 100 PFU HSV-1, pH 6.8, virus in supernatant after four days, from dose-response curve): 0.6 µg/mL
SMILES: S=C(S)OC1CC2CC1C1CCCC21 (single isomer, unassigned) [exo/exo isomer, exo/exo-tricyclo[5.2.1.0^2.6]dec-9-yl-xanthogenate]
fold lower concentration for 50% reduction of viral proliferation as compared to the mixture of isomers (Herpes simplex virus 1 [1]; IC50 ratio versus mixture containing 83% exo/exo isomer): more than 10 fold
fold stronger antiviral effect than the mixture of isomers (Herpes simplex virus 1 [1]; summary statement, versus mixture of 83% exo/exo and 17% other isomers): 4-10 fold
cytopathogenic effect in treated cultures (Herpes simplex virus 1 [2]; 5, 10, 15 or 20 μg/ml): no evidence of a cytopathogenic effect
concentration at which proliferation of the virus was completely suppressed (no cytopathogenic effect) (Herpes simplex virus 1 [2]; tested 5-20 μg/ml): ≤ 5 µg/mL
